Assay results: patent US11801256B2, “Antidepressant-psilocybin co-treatment to assist psychotherapy” (Universitätsspital Basel, priority 2021, dated 2023)

Legend:
[1] = system: healthy subjects; test: Mystical Experience Questionnaire (MEQ30, MEQ43); format: in vivo, human; details: escitalopram 14 days pretreatment vs placebo; P=0.001
Method: (§1) Treatment order was random and counterbalanced.
Mystical experiences were assessed using the German version (Liechti et al., 2017) of the 100-item States of Consciousness Questionnaire (SOCQ) (Griffiths et al., 2006) that includes the 43-item and newer 30-item MEQ (MEQ43 (Griffiths et al., 2006) and MEQ30 (Barrett et al., 2015)). The scale was be administered once at the end of each test session.

[2] = system: healthy subjects; test: Adverse effects (list of complaints) and adverse events; format: in vivo, human
Method: as §1
Adverse effects (list of complaints): The list of complaints (LC) consists of 66 items offering a global score measuring physical and general discomfort (Zerssen, 1976). This scale yields a total adverse effects score and reliably measures physical and general discomfort. The LC list was administered 7 hours after administration of the drug with reference to complaints throughout the entire session.

[3] = system: healthy subjects; test: Subjective effects, visual analog scales (VAS), clinical study; format: in vivo, human
Method: as §1
Study procedures: Subjects took part in a 2-hour screening session, two 9.5-hour test sessions where the psilocybin was administered and a 1-hour end-of-study visit. The subjects were informed about the study both verbally and by the approved written consent form regarding the altered state of consciousness, the study procedures and associated risks. The investigator and the subject both personally signed and dated the consent form as confirmation of consent. Subjects were screened using a semi-structured clinical interview for DSM-IV (Diagnostic and Statistical Manual Version 4) (Wittchen et al., 1997) to exclude those with a personal or family (first-degree relative) axis I major psychiatric disorder (acute or past) or a history of illicit drug dependence. Axis I major psychiatric disorders included also addiction disorders. The sessions were conducted in a calm standard hospital room. Only one research subject and one investigator were present during the test sessions. The test sessions began at 9 AM. The subjects then underwent baseline measurements. […] Psilocybin was administered at 11:00 AM. The outcome measures were repeatedly assessed for 7 hours. The subjects were under constant supervision by an investigator until 6 PM. Thus, the subjects were never alone during the 7 hours after drug administration. The subjects were sent home at 6:30 PM.
Subjective Effects Questionnaire (Visual Analog Scales, VAS): VAS was repeatedly used to assess subjective alterations in consciousness over time. Single scales were presented as 100 mm horizontal lines marked with “not at all” on the left and “extremely” on the right. The following VAS items were used: “any drug effect”, “good drug effect”, “bad drug effect”, “drug liking”, “drug high”, “stimulated”, “fear”, “happy”, “content”, “trust”, “talkative”, “perception of time”, “open”, “concentration”, “speed of thinking”, “feeling close to others”, “wanting to be hugged”, “wanting to hug someone”, “desire to be alone”, “desire to be with others”, and “ego dissolution”. The VASs were presented as 100-mm horizontal lines (0-100%), marked from “not at all” on the left to “extremely” on the right. Some VASs were bidirectional (±50%). Marked from “not at all” on the left (−50), to “normal” in the middle (0), to “extremely” on the right (+50).
The criterion for significance was p<0.05.

[4] = biological target: 2D6 (Homo sapiens, UniProt P10635); details: FDA, 2017; Swissmedic, 2020; cited from earlier work
Chain of 2D6 (P10635 whole entry): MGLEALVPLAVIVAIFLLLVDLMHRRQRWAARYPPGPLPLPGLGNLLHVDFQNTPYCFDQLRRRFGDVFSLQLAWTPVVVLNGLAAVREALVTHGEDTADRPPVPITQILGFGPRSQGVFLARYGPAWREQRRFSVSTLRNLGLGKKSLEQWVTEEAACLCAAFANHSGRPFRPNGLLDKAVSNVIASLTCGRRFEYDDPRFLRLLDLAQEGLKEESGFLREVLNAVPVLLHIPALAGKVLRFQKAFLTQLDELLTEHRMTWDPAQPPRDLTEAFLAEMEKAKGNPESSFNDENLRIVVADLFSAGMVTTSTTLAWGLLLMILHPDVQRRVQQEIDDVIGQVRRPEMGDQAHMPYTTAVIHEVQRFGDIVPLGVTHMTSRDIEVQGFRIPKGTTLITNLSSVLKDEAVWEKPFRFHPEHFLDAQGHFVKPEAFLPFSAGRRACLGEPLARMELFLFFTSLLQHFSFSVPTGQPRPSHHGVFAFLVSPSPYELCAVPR

[5] = any time during escitalopram pretreatment
[6] = escitalopram pretreatment compared with placebo pretreatment (summary)
[7] = escitalopram 14 days pretreatment vs placebo, P=0.004

CN(C)CCC[C@@]1(c2ccc(F)cc2)OCc2cc(C#N)ccc21 [Escitalopram, escitalopram]
effect on psilocybin-induced nadir effects in the MEQ43 [1]: significantly reduced
adverse events during pretreatment: bruxism [2, 5]: 2 subjects
adverse events during pretreatment: decreased libido [2, 5]: 5 subjects
adverse events during pretreatment: diarrhea [2, 5]: 2 subjects
adverse events during pretreatment: difficulty concentrating [2, 5]: 1 subjects
adverse events during pretreatment: dizziness [2, 5]: 2 subjects
adverse events during pretreatment: dysorgasmia [2, 5]: 2 subjects
adverse events during pretreatment: feeling depressed [2, 5]: 3 subjects
adverse events during pretreatment: headache [2, 5]: 6 subjects
adverse events during pretreatment: increased appetite [2, 5]: 2 subjects
adverse events during pretreatment: insomnia [2, 5]: 2 subjects
adverse events during pretreatment: loss of appetite [2, 5]: 3 subjects
adverse events during pretreatment: nausea [2, 5]: eight
adverse events during pretreatment: restless legs [2, 5]: 2 subjects
adverse events during pretreatment: tiredness [2, 5]: 6 subjects
adverse events during pretreatment: visual disturbance [2, 5]: 1 subjects
effect on other adverse effects of psilocybin [2, 6]: significantly reduced
severe adverse event (symptomatic vertebral disc hernia) ([2]; participant on escitalopram pretreatment, five days, prior to psilocybin): one
effect on good drug effects of psilocybin ([3]; escitalopram 14 days pretreatment vs placebo): did not significantly reduce
reduction of peak anxiety induced by psilocybin [3, 7]: 50%
reduction of peak bad drug effects induced by psilocybin [3, 7]: 50%
effect on any drug effects in response to psilocybin ([3]; escitalopram 14 days pretreatment vs placebo, P=0.015): slightly, but significantly reduced
effect on the response to psilocybin, overall ([3]; escitalopram pretreatment 14 days (10 mg 7 days, 20 mg 7 days) before 25 mg psilocybin, compared to placebo pretreatment): only a small effect
effect on psilocybin-induced fear ([3]; escitalopram pretreatment compared to psilocybin alone (summary)): reduced
effect on anxiety of psilocybin (in words) [3, 6]: significantly reduced
effect on bad drug effects of psilocybin (in words) [3, 6]: significantly reduced
effect on the positive mood effects of psilocybin [3, 6]: no relevant effect
inhibition of 2D6 function [4]: slightly inhibits
